From US20100075942A1, “N-PHENYL-4-PYRIDIN-2-YL-BENZAMIDE DERIVATIVES AS HISTONE DEACYLASE (HDAC) INHIBITORS FOR THE TREATMENT OF CANCER” (ASTRAZENECA AB, priority 2005, published 2010)

Assays:
[1] = target: T1, recombinant human HDAC1 (Homo sapiens, UniProt Q13547); test: In vitro enzyme assay of recombinant HDAC1 (Test (a)); type: biochemical; settings: recombinant human HDAC1 produced in Hi5 insect cells; acetylated histone H4 peptide, Fluor de Lys
T1 construct: FLAG (C); made in house; host or cells: Hi5 insect cells
Protocol: HDAC inhibitors were screened against recombinant human HDAC1 produced in Hi5 insect cells. The enzyme was cloned with a FLAG tag at the C-terminal of the gene and affinity purified using Anti-FLAG M2 agarose from SIGMA (A2220).
The deacetylase assays were carried out in a 50 μl reaction. HDAC1 (75 ng of enzyme) diluted in 15 μl of reaction buffer (25 mM TrisHC1 (pH 8), 137 mM NaCl, 2.7 mM KCl, 1 mM MgCl2) was mixed with either buffer alone (10 μl) or buffer containing compound (10 μl for 30 minutes at ambient temperature. 25 μM acetylated histone H4 peptide (KI 174 Biomol) diluted in 25 μl of buffer was then added to the reaction and incubated for one hour at ambient temperature. The reaction was stopped by addition of an equal volume (50 μl) Fluor de Lys developer (Biomol) containing Trichostatin A at 2 μM. The reaction was allowed to develop for 30 minutes at ambient temperature and then fluorescence measured at an excitation wavelength of 360 nm and an emission wavelength of 465 nm. IC50 values for HDAC enzyme inhibitors were determined by performing dose response curves with individual compounds and determining the concentration of inhibitor producing fifty percent decrease in the maximal signal (diluent control). • (b) In Vitro Assay of Inhibition of Proliferation in Whole Cells

[2] = system: HCT116 cells; test: In vitro assay of inhibition of proliferation in whole cells, MTS (Test (b)); type: cell-based; settings: Homo sapiens, HCT-116, 72 hours treatment
Protocol: Inhibition of proliferation in whole cells was assayed using the Promega cell titer 96 aqueous proliferation assay (Promega #G5421). HCT116 cells were seeded in 96 well plates at 1×10^3 cells/well, and allowed to adhere overnight. They were treated with inhibitors for 72 hours. 20 μl of the tetrazolium dye MTS was added to each well and the plates were reincubated for 3 hours. Absorbance was then measured on a 96 well plate reader at […]. The IC50 values for HDAC inhibitors were determined by performing dose response curves with individual compounds and determining the concentration of inhibitor producing fifty percent decrease in maximal signal (diluent control). • (c) In Vitro Enzyme Assay of Histone Deacetylase Activity in Whole Cells

T1 sequence (Q13547 whole entry): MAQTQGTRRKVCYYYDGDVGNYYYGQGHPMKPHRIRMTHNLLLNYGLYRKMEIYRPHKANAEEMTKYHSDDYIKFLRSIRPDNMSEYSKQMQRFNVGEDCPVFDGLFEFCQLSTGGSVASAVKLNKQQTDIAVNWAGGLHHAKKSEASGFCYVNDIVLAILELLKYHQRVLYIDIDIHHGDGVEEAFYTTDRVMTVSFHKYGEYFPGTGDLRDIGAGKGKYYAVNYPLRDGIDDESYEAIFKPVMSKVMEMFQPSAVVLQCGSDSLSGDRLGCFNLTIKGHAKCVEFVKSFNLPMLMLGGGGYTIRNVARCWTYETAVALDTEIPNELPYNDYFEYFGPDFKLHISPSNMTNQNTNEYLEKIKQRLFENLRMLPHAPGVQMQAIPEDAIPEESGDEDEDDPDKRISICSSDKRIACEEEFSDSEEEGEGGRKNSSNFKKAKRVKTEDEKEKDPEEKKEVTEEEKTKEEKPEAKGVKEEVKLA

IC50 [1] [nM] | IC50 [2] [nM] | Structure (SMILES)
16 | 400 | Nc1ccccc1NC(=O)c1ccc(-c2ncc(CNCCN3CCCC3)cc2Cl)cc1 [2 (8), N-(2-aminophenyl)-4-(3-chloro-5-{[(2-pyrrolidin-1-ylethyl)amino]methyl}pyridin-2-yl)benzamide]
9 | 220 | Nc1ccccc1NC(=O)c1ccc(-c2ncc(C(=O)NCCN3CCCC3)cc2Cl)cc1 [5 (1), N-(2-aminophenyl)-4-[3-chloro-5-(N-2-[pyrrolidin-1-yl]ethyl-carbamoyl)-pyridin-2-yl]benzamide]
9 | 160 | CCCCNCc1cnc(-c2ccc(C(=O)Nc3ccccc3N)cc2)c(Cl)c1 [Example 1, N-(2-Aminophenyl)-4-{5-[(butylamino)methyl]-3-chloropyridin-2-yl}benzamide]
